# Data: patent publication US10383881B2, “1,5-dihydro-2H-pyrrol-2-one compounds and methods of using same” (Frequency Therapeutics, Inc., priority 2016, dated 2019)
# Key:
# [1] = system: Wnt signaling pathway, TCF/LEF reporter-HEK293 Recombinant cell lines; assay: Wnt signaling pathway activation in HEK293 cells (TCF/LEF reporter, luciferase); format: cell-based; conditions: Homo sapiens, incubated overnight, read-out: Potency
# Method: Assay: Wnt Signaling Pathway Activation in HEK293 Cells. Materials:
# TCF/LEF reporter-HEK293 Recombinant cell lines
# One-Step Luciferase Assay System
# The assay was performed using TCF/LEF reporter-HEK293 Recombinant cell lines
# Plate 32,000 TCF/LEF reporter-HEK293 Recombinant cells/well in a 96-well plate (volume=90 μL). The compounds were diluted in the thawing medium 1 containing 1% DMSO, and add 10 μL to each well (0.1% DMSO at final). The cells were incubated for overnight at 37° C. in 5% CO2 followed by adding 100 μL of One-Step Luciferase Assay System to each well. Plate was incubated for 30 min at room temperature in a darkroom.
# Luminescence signal was measured using a BioTek Synergy 2 microplate reader.
# Wnt signaling pathway activation assays were performed in triplicates at each concentration. The luminescence data were analyzed using the computer software, Graphpad Prism. The luminescence intensity in the absence of Compounds (Luc) was defined the minimum activity and the signal in the presence of the highest concentration of the Compound was defined as the maximum activity. Signal from the wells containing medium only was defined as background. […]
# recombinant human GSK3α = recombinant human GSK3α (Homo sapiens, UniProt P49840); assay: In vitro enzymatic assay for inhibition of GSK3α (Kinase-Glo Max luminescence); format: biochemical; conditions: 10 uM ATP, 0.1 mg/ml GSKtide, 30° C. for 40 minutes; read-out: Potency GSK-3alpha
# Method: (§1) Enzymatic activities using recombinant human GSK3 using an in vitro enzymatic assay for inhibition GSK3α and GSK3β.
# (§2) The assay was performed using Kinase-Glo Max luminescence kinase assay kit (Promega). It measures kinase activity by quantitating the amount of ATP remaining in solution following a kinase reaction. The luminescent signal from the assay is correlated with the amount of ATP present and is inversely correlated with the amount of kinase activity. The compounds were diluted in 10% DMSO and 5 μl of the dilution was added to a 50 μl reaction so that the final concentration of DMSO is 1% in all of reactions. The enzymatic reactions were conducted at 30° C. for 40 minutes. The 50 μl reaction mixture contains 40 mM Tris, pH 7.4, 10 mM MgCl2, 0.1 mg/ml BSA, 2 mM DTT, 0.1 mg/ml GSKtide substrate, 10 uM ATP and GSK3. After the enzymatic reaction, 50 μl of Kinase-Glo Max Luminescence kinase assay solution (Promega) was added to each reaction and incubate the plate for 15 minutes at room temperature. Luminescence signal was measured using a BioTek Synergy 2 microplate reader.
# (§3) Kinase activity assays were performed in duplicate at each concentration. The luminescence data were analyzed using the computer software, Graphpad Prism. The difference between luminescence intensities in the absence of Kinase (Lut) and in the presence of Kinase (Luc) was defined as 100% activity (Lut−Luc). […]
# Lgr5-positive cells = assay: Expansion of Lgr5-positive cochlear cells from Lgr5-EGFP-IRES-Cre-ER mice (flow cytometry for Lgr5-GFP); format: cell-based, mouse; conditions: 10 days (D10) in culture; for Potency: Lgr5-positive cell expansion; for % of Cells: percentage of GFP-positive (Lgr5-GFP) cells
# Method: Lgr5-EGFP-IRES-Cre-ER mice (Barker et al., 2007) (http://jaxmice.jax.org/strain/008875.html) are used to analyze the effects of small molecules on cochlear stem cell expansion.
# Isolation of stem cells from the inner ear: All animal studies are conducted under an approved institutional protocol according to National Institutes of Health guidelines. For experiments with neonatal mice (postnatal days 1-3), the cochleae are dissected in HBSS and the organ of Corti are separated from the stria vascularis and the modiolus. The organs of Corti are then treated with Cell Recovery Solution (Corning) for 1 h to separate cochlear epithelium from the underlying mesenchyme. Epithelia are then collected and treated with TrypLE (Life Technologies) for 15-20 minutes at 37° C. Single cells obtained by mechanical trituration are filtered (40 μm) and suspended in Matrigel (Corning) for 3D culture.
# Cells are cultured in a 1:1 mixture of DMEM and F12, supplemented with Glutamax (GIBCO), N2, B27 (Invitrogen), EGF (50 ng/ml; Chemicon), bFGF (50 ng/ml; Chemicon), IGF1 (50 ng/ml; Chemicon) and the composition provided herein. Media are changed every other day.
# Lgr5-positive cells are quantified after 10 days (D10) in culture in multiple conditions. Cell colonies are dissociated into single cells using TrypLE (Gibco). The cells are then stained with propidium iodide (PI) and are analyzed using a flow cytometer for Lgr5-GFP expression. The number of GFP-positive cells and the percentage of GFP-positive cells are quantified.
# Atoh1-nGFP-positive cells are quantified at day 0 (D0) and day 10 (D10) of differentiation treatment to determine the number of hair cells that have differentiated. Cell colonies are incubated in Cell Recovery Solution to release the colonies from Matrigel and dissociated into single cells using TrypLE. The total number and percentage of GFP-positive cells are quantified using a flow cytometer for multiple culture conditions. ANOVA is used to compare means across conditions, and the two-tailed Student's T-test is used to compare each condition to the treatment with the highest yield.
# recombinant human GSK3β = recombinant human GSK3β (Homo sapiens, UniProt P49841); assay: In vitro enzymatic assay for inhibition of GSK3β (Kinase-Glo Max luminescence); format: biochemical; conditions: 10 uM ATP, 0.1 mg/ml GSKtide, 30° C. for 40 minutes; read-out: Potency GSK-3beta
# Method: as §1, §2, §3
# recombinant human GSK3β, sequence (P49841 whole entry): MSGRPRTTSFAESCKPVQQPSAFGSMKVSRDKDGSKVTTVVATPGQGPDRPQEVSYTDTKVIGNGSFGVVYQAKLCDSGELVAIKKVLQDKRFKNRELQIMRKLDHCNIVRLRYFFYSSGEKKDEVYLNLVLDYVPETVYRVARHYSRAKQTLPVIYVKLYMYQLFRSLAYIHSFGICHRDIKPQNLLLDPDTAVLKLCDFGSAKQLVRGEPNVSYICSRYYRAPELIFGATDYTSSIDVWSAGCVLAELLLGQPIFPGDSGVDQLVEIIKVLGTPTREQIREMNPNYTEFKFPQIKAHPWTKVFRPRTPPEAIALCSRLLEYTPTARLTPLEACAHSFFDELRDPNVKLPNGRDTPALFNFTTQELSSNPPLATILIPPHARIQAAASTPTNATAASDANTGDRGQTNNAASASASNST
# recombinant human GSK3α, sequence (P49840 whole entry): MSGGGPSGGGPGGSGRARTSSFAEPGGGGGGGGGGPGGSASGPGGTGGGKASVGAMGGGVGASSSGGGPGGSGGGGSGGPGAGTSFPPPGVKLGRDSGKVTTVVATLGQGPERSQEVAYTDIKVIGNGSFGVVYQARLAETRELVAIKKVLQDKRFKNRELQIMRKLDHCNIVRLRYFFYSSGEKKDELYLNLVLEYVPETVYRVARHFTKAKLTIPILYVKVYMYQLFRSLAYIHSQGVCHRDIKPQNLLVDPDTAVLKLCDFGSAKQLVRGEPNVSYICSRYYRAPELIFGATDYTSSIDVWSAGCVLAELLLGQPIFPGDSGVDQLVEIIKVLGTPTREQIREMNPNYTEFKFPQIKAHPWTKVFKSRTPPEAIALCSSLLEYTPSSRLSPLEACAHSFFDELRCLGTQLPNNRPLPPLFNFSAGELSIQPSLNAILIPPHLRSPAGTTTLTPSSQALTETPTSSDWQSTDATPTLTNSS
Structure (SMILES),EC50 [1] [nM],IC50 (recombinant human GSK3α) [nM],Potency (Lgr5-positive cells) [nM],% of Cells (Lgr5-positive cells) [%],IC50 (recombinant human GSK3β) [nM]
O=C1NCC(c2cn3c4c(cc(F)cc24)CN(C(=O)N2CCCCC2)CC3)=C1c1cnc2ccccn12 [Compound I-4],60,15.6,333.3,8.3,22
O=C1NCC(c2cnc3ccccn23)=C1c1cn2c3c(cc(F)cc13)CN(C(=O)N1CCCCC1)CC2 [Compound I-49],< 10,8.2,333.3,5.5,8.3
